According to patent US20090018111A1, “Novel Antimicrobial Medicament” (priority 2004, published 2009):
Read-outs that look alike come from different tables or passages of the source.

Tests used:
B. subtilis ATCC6633 = test: Sensitivity test (agar dilution); type: cell-based, Bacillus subtilis; conditions: Bacillus subtilis, B. subtilis ATCC6633
Outline: (§1)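 Standard Japanese agar dilution method. Drugs alone or combined were serially halved in Mueller Hinton agar, inoculated with overnight (37° C) cultures at about 10^6 CFU/ml. Values are MICs.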

S. marcescens GN6473 = test: Sensitivity test (agar dilution); type: cell-based, Serratia marcescens; conditions: Serratia marcescens, S. marcescens GN6473
Outline: as §1

S. marcescens X 100 = test: Sensitivity test (agar dilution); type: cell-based, Serratia marcescens; conditions: Serratia marcescens, S. marcescens X 100
Outline: as §1

C. freundii GN346 = test: Sensitivity test (agar dilution); type: cell-based, Citrobacter freundii; conditions: Citrobacter freundii, C. freundii GN346
Outline: as §1

P. mirabiris GN2425 = test: Sensitivity test (agar dilution); type: cell-based, Proteus mirabilis; conditions: Proteus mirabilis, P. mirabiris GN2425
Outline: as §1

S. aureus 209P = test: Sensitivity test (agar dilution); type: cell-based, Staphylococcus aureus; conditions: Staphylococcus aureus, 209P, S. aureus 209P
Outline: as §1

[1] = test system: S. aureus MS94088 (hetero-MRSA); test: Sensitivity test (agar dilution); type: cell-based, Staphylococcus aureus; conditions: Staphylococcus aureus, MRSA, S. aureus MS94088 (hetero-MRSA)
Outline: as §1

S. maltophilia IID1275 = test: Sensitivity test (agar dilution); type: cell-based, Stenotrophomonas maltophilia; conditions: Stenotrophomonas maltophilia, S. maltophilia IID1275
Outline: as §1

E. faecium ATCC19434 = test: Sensitivity test (agar dilution); type: cell-based, Enterococcus faecium; conditions: Enterococcus faecium, E. faecium ATCC19434
Outline: as §1

E. coli ML1410 RP4 = test: microbe, parasite or virus in culture; type: cell-based, Escherichia coli; conditions: Escherichia coli, E. coli ML1410 RP4
Outline: as §1

E. aerogenes ATCC13048 = test: Sensitivity test (agar dilution); type: cell-based, Enterobacter aerogenes; conditions: Klebsiella aerogenes, E. aerogenes ATCC13048
Outline: as §1

M. catarrhalis ATCC25238 = test: Sensitivity test (agar dilution); type: cell-based, Moraxella catarrhalis; conditions: Moraxella catarrhalis, M. catarrhalis ATCC25238
Outline: as §1

M. catarrhalis ATCC8176 = test: Sensitivity test (agar dilution); type: cell-based, Moraxella catarrhalis; conditions: Moraxella catarrhalis, M. catarrhalis ATCC8176
Outline: as §1

[2] = Concomitant (AZT:SM = 1:1), read-out: MIC concomitant
[3] = drug alone, read-out: MIC alone

C[C@H]1[C@H](NC(=O)/C(=N\OC(C)(C)C(=O)O)c2csc(N)n2)C(=O)N1S(=O)(=O)O [AZT, aztreonam]
MIC (B. subtilis ATCC6633; ATCC6633, Concomitant (AZT:SM = 1:1), read-out: MIC concomitant): ≤ 0.002 mg/L | MIC (B. subtilis ATCC6633; ATCC6633, drug alone, read-out: MIC alone): > 32 mg/L | MIC (S. marcescens GN6473; GN6473, Concomitant (AZT:SM = 1:1), read-out: MIC concomitant): 0.25 mg/L | MIC (S. marcescens GN6473; GN6473, drug alone, read-out: MIC alone): 0.125 mg/L | MIC (S. marcescens X 100; X100, Concomitant (AZT:SM = 1:1), read-out: MIC concomitant): 0.031 mg/L | MIC (S. marcescens X 100; X100, drug alone, read-out: MIC alone): 0.063 mg/L | MIC (C. freundii GN346; GN346, Concomitant (AZT:SM = 1:1), read-out: MIC concomitant): 8 mg/L | MIC (C. freundii GN346; GN346, drug alone, read-out: MIC alone): 0.5 mg/L | MIC (P. mirabiris GN2425; GN2425, Concomitant (AZT:SM = 1:1), read-out: MIC concomitant): 0.004 mg/L | MIC (P. mirabiris GN2425; GN2425, drug alone, read-out: MIC alone): 0.004 mg/L | MIC (S. aureus 209P; [2]): 0.008 mg/L | MIC (S. aureus 209P; [3]): > 32 mg/L | MIC [1, 2]: 0.25 mg/L | MIC [1, 3]: > 32 mg/L | MIC (S. maltophilia IID1275; IID1275, Concomitant (AZT:SM = 1:1), read-out: MIC concomitant): > 32 mg/L | MIC (S. maltophilia IID1275; IID1275, drug alone, read-out: MIC alone): > 32 mg/L | MIC (E. faecium ATCC19434; ATCC19434, Concomitant (AZT:SM = 1:1), read-out: MIC concomitant): 0.125 mg/L | MIC (E. faecium ATCC19434; ATCC19434, drug alone, read-out: MIC alone): > 32 mg/L | MIC (E. coli ML1410 RP4; ML1410RP4, read-out: MIC alone, drug alone): 0.125 mg/L | MIC (E. coli ML1410 RP4; ML1410RP4, read-out: MIC concomitant, Concomitant (AZT:SM = 1:1)): 0.063 mg/L | MIC (E. aerogenes ATCC13048; ATCC13048, Concomitant (AZT:SM = 1:1), read-out: MIC concomitant): 8 mg/L | MIC (E. aerogenes ATCC13048; ATCC13048, drug alone, read-out: MIC alone): 0.063 mg/L | MIC (M. catarrhalis ATCC25238; ATCC25238, Concomitant (AZT:SM = 1:1), read-out: MIC concomitant): ≤ 0.002 mg/L | MIC (M. catarrhalis ATCC25238; ATCC25238, drug alone, read-out: MIC alone): 0.125 mg/L | MIC (M. catarrhalis ATCC8176; ATCC8176, Concomitant (AZT:SM = 1:1), read-out: MIC concomitant): ≤ 0.002 mg/L | MIC (M. catarrhalis ATCC8176; ATCC8176, drug alone, read-out: MIC alone): 0.25 mg/L
